Article PMC6290777, “Inhalation of the prodrug PI3K inhibitor CL27c improves lung function in asthma and fibrosis” (Nature Communications, 2018)

Columns and labels:
[1] = Microsomial stability, mouse; format: in vitro ADME; conditions: mouse liver microsomes, NADPH
Method: To define whether this prodrug was suitable for inhaled administration, CL27c was studied to evaluate selected ADME (absorption, distribution, metabolism, and excretion) and pharmacokinetic properties. First, stability of CL27c and CL27e was analyzed in mouse plasma (Supplementary Table 1) and in mouse, rat, and human liver microsomes in the presence of nicotinamide adenine dinucleotide phosphate (NADPH; Supplementary Table 2). Next, clearance of CL27c was analyzed in C57BL/6J mice after either intra-venous or oral administration. […] Clearance of CL27c and CL27e after oral administration could not be determined due to their low bioavailability (Supplementary Table 3). […]
obtained at 200 × magnification were analyzed using the software Image -J (NIH, USA). Results were expressed as extracellular matrix deposition area (pixels). […]
Akt phosphorylation was measured by western blot as described in the “Western blot analysis” in […]
Cells were obtained from Lymph nodes and spleen from naive C57Bl/6J and purified with CD4 T cell isolation Kit (Miltenyi Biotec #130-104-454) and with CD25 biotin (eBioscience #13-0252-81) and microbeads anti-biotin (Miltenyi Biotec #130-090-485). […] Positive stained cells were analyzed with FlowJo X software after removal of doublets events and debris through FSC-A/FSC-H gating.

[2] = test system: OVA-induced acute allergic asthma; assay: OVA-induced acute allergic asthma model; format: in vivo, BALB/c mice
Method: On Days 1 and 14, BALB/c mice (6–8 weeks) received an intraperitoneal injection (i.p.) of a solution containing 0.5 mg/ml OVA and 5 mg/ml Alum (described in Fig. 2). Untreated controls were injected with a solution of 5 mg/ml Alum. […] Untreated control groups included mice challenged with PBS alone. On day 29, mice were sacrificed, and samples were collected for further analysis.
BALF was performed to obtain leukocytes from alveolar space. The trachea was exposed and a 1.7-mm-outside-diameter polyethylene catheter was inserted. BAL was performed by washing the lungs three-times with three different 500 µl aliquots of PBS. BALF samples were centrifuged at 600 × g for 10 min at 4 °C on a histology glass slide and stained with Diff Quick (MICROPTIC, #DQ-ST). The number of leukocytes and differential counts of different population were obtained evaluating the percentage leukocyte populations over the total cell number.
IL-5, IL-13, eotaxin, TGF-β, KC, IL-17A, and MCP-1 levels in the BALF and anti-OVA IgE levels in serum were measured by ELISA technique using commercial DuoSet kits R&D Systems according to the instructions of the manufacturer. Results were expressed in levels of cytokines per ml of […] (pg/ml) or arbitrary units (A.U.).
Immunohistochemistry for CD18 was performed using the streptavidin-biotin-peroxidase method in formalin-fixed, paraffin-embedded tissue sections (5 µm thick) mounted on poly-L-lysine-coated microscope slides. Lung cross-sections were deparaffinized and rehydrated through xylene and graded alcohols. After antigen retrieval, endogenous peroxidase was blocked (15 min) with 3% (v/v) hydrogen peroxide and washed in phosphate-buffered saline (PBS). Sections were incubated overnight (4 °C) with primary rabbit anti-CD18 antibody (Acris Antibodies GmbH, Germany, Cat. Number B0842-1) diluted 1:400 in PBS plus bovine serum albumin (PBS-BSA) or rabbit anti/PAkt (S473) diluted 1:100 in PBS/BSA. The slides were then incubated with biotinylated goat anti-rabbit antibody (Dako Agilent Pathology Solution, USA) diluted 1:1000 in PBS/BSA. After washing, the slides were incubated with avidin-biotin-horseradish peroxidase conjugate (Dako Agilent Pathology Solution, USA) for 30 min, according to the manufacturer’s instructions. CD18 and PAkt-positive cells were visualized with the chromogen 3,3′-diaminobenzidine (DAKO liquid DAB + substrate chromogen system, CA, USA). Slides were counterstained with Harry’s hematoxylin, dehydrated in a graded alcohol series, cleared in xylene, and cover slipped.
Lung, liver, and heart samples were collected for western blot detection of akt phosphorilation levels. Protein samples were resolved by 10% SDS-PAGE and transferred on to PVDF (Immobilon™-P) membranes. The membranes were blocked with 5% BSA in 1x TBS with 0.3% Tween 20 for 30 min at […]. Then, the membranes were incubated overnight at 4 °C with primary antibodies (phosphorylated Akt serine 473, 1:1000, Cell Signaling Technology, Cat. Number 4060) and 1 h with HRP-conjugated secondary antibody (1:10000). The blots were visualized in ECL solution for 1 min and images were captured on Luminescent Image Analyser (ChemiDoc Imaging Systems, Bio-Rad Laboratories, USA). For loading control, the blots were striped and reassessed with pan Akt (1:1000) antibody. For quantification, specific phosphorylation was calculated as the ratio of signals for phosphorylated Akt to the signal of total Akt detected. Values of unstimulated samples were set to 1.0. Uncropped scans of the most important blots are provided as a supplementary figure in the Supplementary Information (Supplementary Fig. 15).

COC(=O)c1cccc(Cn2cc(-c3cccc4c(=O)cc(N5CCOCC5)[nH]c34)nn2)c1 [CL27c]
Clint (intrinsic clearance) [1]: 0.1 ± 0.02 ml/min/mg prot
t1/2 [1]: 12.4 ± 2.0 min
TGF-β in lung tissue lysates ([2]; OVA-challenged mice as described in Fig. 2, inhaled CL27c): reduction of transforming growth factor-β (TGF-β) and IL-13 to the level detected in unsensitized controls
IL-10 in lung tissue lysates ([2]; OVA-challenged mice as described in Figure 2, inhaled CL27c): increased pulmonary abundance of IL-10
efficacy on OVA-induced acute asthma ([2]; highest dose, 20 mg/ml): inconsistent outcomes
IL-5 and IL-13 levels in lung tissue ([2]; inhaled CL27c 2 mg/ml): restored both IL-5 and IL-13 to the levels detected in unsensitized control mice
reduction of eosinophils accumulation in BALF ([2]; inhaled CL27c 2 mg/ml): 70%
reduction of lymphocytes accumulation in BALF ([2]; inhaled CL27c 2 mg/ml): 72%
reduction of macrophages accumulation in BALF ([2]; inhaled CL27c 2 mg/ml): 60%
reduction of neutrophils accumulation in BALF ([2]; inhaled CL27c 2 mg/ml): 68%
Akt phosphorylation in lung lysates and sections ([2]; inhaled CL27c 2 mg/ml, day 29): decrease in Akt phosphorylation
CD18-positive leukocyte recruitment to the lung ([2]; inhaled CL27c 2 mg/ml, immunohistochemistry): reduced leukocyte recruitment
efficacy on OVA-induced acute asthma ([2]; lowest dose, 0.2 mg/ml): no efficacy
